From patent US7985072B2, “Method and apparatus for tooth rejuvenation and hard tissue modification” (Rejuvedent LLC, priority 2005, dated 2011)

Experiments:
[1] = Depth of the etched (porous) enamel layer with aqueous citric acid solution, parameters of equation (1)
Source text: The inventors conducted a series of tests to determine the optimal pH, temperature and time for tooth rejuvenation, and for designing various devices for the tooth rejuvenation procedure. […] The enamel surface is not homogeneous, it contains inorganic components, such as hydroxyapatite, in the form of crystals oriented towards its surface. The enamel surface also contains organic components, such as proteins. When the organic and inorganic components are exposed to an aqueous acid solution, such exposure leads to the deconstruction and removal of these components to a certain depth into the enamel, forming a superficial porous layer. Stains, bacteria and the weak components of the enamel are removed from the porous layer, bleached or destroyed by the acid. Exposure time, pH and the concentration and temperature of the solution all affect the depth of tissue treatment and structure of surface after treatment. The removal and bleaching of the organic component is important because this component contains the most pigment. The organic component is however, tightly bound to the inorganic component, which occurs during tooth formation and is not affected by factors such as frequency of tooth brushing, or the type of toothpaste used. Because of this, bleaching removes both the organic and the bonded inorganic components.
The ability of an aqueous acidic solution to deconstruct and dissolve both organic and inorganic components depends on the period of time, pH, concentration, and temperature at which the process occurs. The color of the enamel after stain removal and bleaching is determined by how closely the structure after etching matches the natural structure and how well light is scattered from the surface of the tooth. Remineralization is however, a slow process, so caution in carrying out the procedure is recommended, and it is desirable to protect the new surface with a hard material. To achieve this, the present invention proposes the use of a high concentration of acid to minimize the time of treatment. For a high concentration of acid to be used safely within the oral cavity, two fundamental safety concerns need to be addressed: firstly toxicity and secondly soft tissue damage. To completely eliminate the toxicity problem, especially for home use, we propose the use of an edible acid which is non-toxic when ingested. The volume of acid for any application in the present invention is limited to several cubic centimeters. After dissolution in saliva the concentration of the acid ingested will drop, and the pH will increase, which is typical for foodstuffs. A typical pH for food acids is 2.5 or more. We have studied the effect of a low pH (<2.5) edible acid on intact enamel.
The temperature of the acid is another parameter to be optimized for enamel etching when using a high concentration of acid. An increase in temperature increases the depth of etching due to two factors: first, it increases the diffusion coefficient and, second, the rate of the chemical reaction between the acid and the enamel due to Arrenius law. […] These graphs can be described by the following formula: […]
Here, hw is the depth of the porous layer of enamel in μm after t min of etching as a function of t. Parameters cc, ct, and D can be the functions of both temperature T and pH.
The parameters α, cc, and D were found using the best square fit.

[2] = Example 3: thermal treatment of etched enamel impregnated by sapphire particles (CO2 laser), in vitro; set-up: species or system human; conditions: pH=1.5, approximately +50° C., approximately 10 minutes
Experimental: The authors produced a durable, white colored coating on the enamel surface in an in-vitro experiment as described below. The experiment was conducted on freshly extracted teeth from subjects in the 25-40 age group. The teeth were extracted for periodontal reasons. All specimens had healthy, intact enamel. Prior to the experiment, the specimen were stored for no longer than two weeks in a physiological solution, in a dark place at a temperature of approximately +4° C.
One half of the crown of the tooth was coated with varnish. […] The tooth was exposed to the acid for a period of approximately 10 minutes, which was sufficient for the formation of a porous layer of enamel, approximately 50 μm in thickness on unprotected side of the specimen. […]
Thermocycling test was performed after described treatment The tooth was placed into two alternate water baths, one at +25° C. and the other at +90° C., for a period of 2 seconds into each bath, for a total immersion of 100 cycles. The hardness of the treated and untreated sides was assessed, before and after thermocycling, using a dental probe. The strength of the adhesion of the newly formed layer with sapphire particles to the underlying enamel was also assessed using the tip of the dental probe in an attempt to dislodge the newly formed layer at the border.

## O=C(O)CC(O)(CC(=O)O)C(=O)O [citric acid]
[1]; 50° C., pH=1.5, from the presented graphs (exposure time 10 min)
  etched depth of the tooth enamel: 40 μm
[1]; T = 50° C., pH 1
  D, parameter of equation (1), thickness of porous (etched) layer of enamel: 94.035 μm^2/min
  α1, parameter of equation (1), thickness of porous (etched) layer of enamel: 1.069 μm/min
  α, parameter of equation (1), thickness of porous (etched) layer of enamel: 3.195 μm/min
[1]; T = 50° C., pH 2
  D, parameter of equation (1), thickness of porous (etched) layer of enamel: 4.646 μm^2/min
  α1, parameter of equation (1), thickness of porous (etched) layer of enamel: 0.559 μm/min
  α, parameter of equation (1), thickness of porous (etched) layer of enamel: 1.022 μm/min
[1]; T = 50° C., pH 2.5
  α1, parameter of equation (1), thickness of porous (etched) layer of enamel: −0.018 μm/min
  α, parameter of equation (1), thickness of porous (etched) layer of enamel: 0.211 μm/min
[1]; pH = 1.5, 20 °C
  D, parameter of equation (1), thickness of porous (etched) layer of enamel: 2.604 μm^2/min
  α1, parameter of equation (1), thickness of porous (etched) layer of enamel: 0.158 μm/min
  α, parameter of equation (1), thickness of porous (etched) layer of enamel: 0.524 μm/min
[1]; pH = 1.5, 37 °C
  D, parameter of equation (1), thickness of porous (etched) layer of enamel: 23.124 μm^2/min
  α1, parameter of equation (1), thickness of porous (etched) layer of enamel: 0.515 μm/min
  α, parameter of equation (1), thickness of porous (etched) layer of enamel: 1.751 μm/min
[1]; pH = 1.5, 40 °C
  D, parameter of equation (1), thickness of porous (etched) layer of enamel: 36.801 μm^2/min
  α1, parameter of equation (1), thickness of porous (etched) layer of enamel: 0.469 μm/min
  α, parameter of equation (1), thickness of porous (etched) layer of enamel: 1.921 μm/min
[1]; pH = 1.5, 45 °C
  D, parameter of equation (1), thickness of porous (etched) layer of enamel: 74.738 μm^2/min
  α1, parameter of equation (1), thickness of porous (etched) layer of enamel: 0.833 μm/min
  α, parameter of equation (1), thickness of porous (etched) layer of enamel: 2.767 μm/min
[1]; pH = 1.5, 50 °C
  D, parameter of equation (1), thickness of porous (etched) layer of enamel: 121.664 μm^2/min
  α1, parameter of equation (1), thickness of porous (etched) layer of enamel: 1.31 μm/min
  α, parameter of equation (1), thickness of porous (etched) layer of enamel: 3.755 μm/min
[1]; pH = 1.5, 60 °C
  D, parameter of equation (1), thickness of porous (etched) layer of enamel: 122.528 μm^2/min
  α1, parameter of equation (1), thickness of porous (etched) layer of enamel: 1.504 μm/min
  α, parameter of equation (1), thickness of porous (etched) layer of enamel: 4.124 μm/min
[2]
  thickness of porous layer of enamel formed: approximately 50 μm
